Results: PubChem BioAssay (NCI)
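How tested: cells in 96-well plates exposed to compound for 48 hours at five concentrations. GI50 is the concentration that inhibits growth by half. TGI: total growth inhibition.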

Legend:
Test in all cases: DTP human tumour cell line panel, 48 h
[1] = tested on: OVCAR-4 ovarian
[2] = tested on: SK-MEL-2 melanoma
[3] = tested on: MDA-MB-231 breast
[4] = tested on: NCI-H226 lung
[5] = tested on: KM12 colon
[6] = tested on: LOX IMVI melanoma
[7] = tested on: HCT-116 colon
[8] = tested on: CAKI-1 renal
[9] = tested on: UO-31 renal
[10] = tested on: A549 NSCLC
[11] = tested on: 786-0 renal
[12] = tested on: SR leukemia
[13] = tested on: HL-60(TB) leukemia
[14] = tested on: HCT-15 colon
[15] = tested on: NCI/ADR-RES ovarian
[16] = tested on: ACHN renal
[17] = tested on: MDA-MB-468 breast
[18] = tested on: NCI-H23 lung
[19] = tested on: CCRF-CEM leukemia
[20] = tested on: OVCAR-3 ovarian
[21] = tested on: MALME-3M melanoma
[22] = tested on: RPMI-8226 leukemia
[23] = tested on: SF-268 CNS
[24] = tested on: SK-MEL-5 melanoma
[25] = tested on: HOP-92 NSCLC
[26] = tested on: SK-MEL-28 melanoma
[27] = tested on: SNB-19 CNS
[28] = tested on: SN12C renal
[29] = tested on: MCF7 breast
[30] = tested on: HCC-2998 colon
[31] = tested on: EKVX NSCLC
[32] = tested on: T-47D breast
[33] = tested on: COLO 205 colon
[34] = tested on: HT29 colon
[35] = tested on: SW-620 colon
[36] = tested on: SF-539 CNS
[37] = tested on: TK-10 renal
[38] = tested on: SK-OV-3 ovarian
[39] = tested on: UACC-257 melanoma
[40] = tested on: HS 578T breast
[41] = tested on: M14 melanoma
[42] = tested on: NCI-H522 lung
[43] = tested on: IGROV1 ovarian
[44] = tested on: A498 renal
[45] = tested on: U251 CNS
[46] = tested on: SF-295 CNS
[47] = tested on: OVCAR-5 ovarian
[48] = tested on: HOP-62 NSCLC
[49] = tested on: K-562 leukemia
[50] = tested on: MOLT-4 leukemia
[51] = tested on: OVCAR-8 ovarian
[52] = tested on: RXF 393 renal
[53] = tested on: NCI-H460 lung
[54] = tested on: BT-549 breast
[55] = tested on: DU-145 prostate
[56] = tested on: MDA-MB-435
[57] = tested on: UACC-62 melanoma
[58] = tested on: PC-3 prostate

For `C[C@H]1CN(C(=O)c2ccc3c(NNC(=O)c4ccncn4)nc4cc(F)c(F)cc4n23)CCN1`, the GI50 [1] was 2.12 µM, the TGI [1] was 40.1 µM and the GI50 [2] was 2.73 µM. The TGI [2] was 20.1 µM, the GI50 [3] was 3.42 µM and the TGI [3] was 49.9 µM. It also gave a GI50 [4] of 1.49 µM, a TGI [4] of 13 µM and a GI50 [5] of 2.29 µM. It also gave a TGI [5] of 54 µM, a GI50 [6] of 0.88 µM and a TGI [6] of 4.44 µM. The GI50 [7] was 0.568 µM, the TGI [7] was 22.2 µM and the GI50 [8] was 0.566 µM. The TGI [8] was 27.2 µM, the GI50 [9] was 0.284 µM and the TGI [9] was 5.08 µM. It also gave a GI50 [10] of 0.773 µM, a TGI [10] of 15.6 µM and a GI50 [11] of 0.879 µM. For the same molecule, the TGI [11] was 11.4 µM, the GI50 [12] was 0.444 µM and the TGI [12] was 11.3 µM. The GI50 [13] was 1.3 µM, the TGI [13] was 6.27 µM and the GI50 [14] was 0.18 µM. The TGI [14] was 20.1 µM, the GI50 [15] was 1.24 µM and the TGI [15] was 6.73 µM. It also gave a GI50 [16] of 0.452 µM, a TGI [16] of 12.2 µM and a GI50 [17] of 1.51 µM. For the same molecule, the TGI [17] was 4.54 µM, the GI50 [18] was 2 µM and the TGI [18] was > 100 µM. For the same molecule, the GI50 [19] was 1.25 µM, the TGI [19] was 8.74 µM and the GI50 [20] was 3.32 µM. It also gave a TGI [20] of 81.1 µM, a GI50 [21] of 2.57 µM and a TGI [21] of 9.98 µM. The GI50 [22] was 2.71 µM, the TGI [22] was > 100 µM and the GI50 [23] was 2.17 µM. For the same molecule, the TGI [23] was > 100 µM, the GI50 [24] was 1.55 µM and the TGI [24] was 11.1 µM. The GI50 [25] was 0.246 µM, the TGI [25] was 5.56 µM and the GI50 [26] was 2.92 µM. For the same molecule, the TGI [26] was > 100 µM, the GI50 [27] was 3.4 µM and the TGI [27] was > 100 µM. For the same molecule, the GI50 [28] was 2.87 µM, the TGI [28] was > 100 µM and the GI50 [29] was 2.75 µM. The TGI [29] was 55.8 µM, the GI50 [30] was 2.14 µM and the TGI [30] was 62.5 µM. It also gave a GI50 [31] of 0.871 µM, a TGI [31] of 9.24 µM and a GI50 [32] of 3.43 µM. For the same molecule, the TGI [32] was > 100 µM, the GI50 [33] was 2.32 µM and the TGI [33] was 15 µM. It also gave a GI50 [34] of 0.495 µM, a TGI [34] of 16 µM and a GI50 [35] of 1.98 µM. For the same molecule, the TGI [35] was > 100 µM, the GI50 [36] was 2.61 µM and the TGI [36] was 14.5 µM. The GI50 [37] was 0.373 µM, the TGI [37] was 16.8 µM and the GI50 [38] was 1.2 µM. It also gave a TGI [38] of 17.2 µM, a GI50 [39] of 3.34 µM and a TGI [39] of 20.3 µM. The GI50 [40] was 7.64 µM, the TGI [40] was > 100 µM and the GI50 [41] was 0.711 µM. The TGI [41] was 4.5 µM, the GI50 [42] was 2.18 µM and the TGI [42] was 20.3 µM. The GI50 [43] was 3.29 µM, the TGI [43] was > 100 µM and the GI50 [44] was 19.1 µM. For the same molecule, the TGI [44] was 34.3 µM, the GI50 [45] was 0.892 µM and the TGI [45] was > 100 µM. It also gave a GI50 [46] of 0.418 µM, a TGI [46] of 19.1 µM and a GI50 [47] of 2.58 µM. The TGI [47] was 44.4 µM, the GI50 [48] was 0.938 µM and the TGI [48] was > 100 µM. It also gave a GI50 [49] of 1.97 µM, a TGI [49] of 32.6 µM and a GI50 [50] of 1.98 µM. It also gave a TGI [50] of 17.2 µM, a GI50 [51] of 1.05 µM and a TGI [51] of 14 µM. It also gave a GI50 [52] of 2.12 µM, a TGI [52] of 12.2 µM and a GI50 [53] of 0.492 µM. It also gave a TGI [53] of 12.7 µM, a GI50 [54] of 4.06 µM and a TGI [54] of 85.8 µM. The GI50 [55] was 1.99 µM, the TGI [55] was > 100 µM and the GI50 [56] was 4.83 µM. The TGI [56] was > 100 µM, the GI50 [57] was 1.53 µM and the TGI [57] was 4.56 µM. For the same molecule, the GI50 [58] was 1.6 µM and the TGI [58] was 30.6 µM.
